# Organism: Rattus norvegicus
# Experiment: DrugMatrix - Regimen: Daily Repeat
# Format: toxicity, organism-based, Sprague-Dawley
# Parameters: regimen Daily Repeat, gender Male, age 6-8 weeks
# Conditions: in vivo, sc, route subcutaneous, […]; for ABSOLUTE BASOPHIL / ABSOLUTE EOSINOPHIL / ABSOLUTE LYMPHOCYTE / ABSOLUTE MONOCYTE / ABSOLUTE SEGMENTED NEUTROPHIL / BASOPHIL / EOSINOPHIL / ERYTHROCYTE COUNT / HEMATOCRIT / HEMOGLOBIN / LEUKOCYTE COUNT / LYMPHOCYTE / MEAN CORPUSCULAR HEMOGLOBIN / MEAN CORPUSCULAR HEMOGLOBIN CONCENTRATION / MEAN CORPUSCULAR VOLUME / MONOCYTE / NEUTROPHIL / NUCLEATED RED BLOOD CELLS / PLATELET COUNT: tissue Blood; for ALANINE AMINOTRANSFERASE / ALBUMIN / ALKALINE PHOSPHATASE / ASPARTATE AMINOTRANSFERASE / BLOOD UREA NITROGEN / CARBON DIOXIDE / CHLORIDE / CHOLESTEROL / CREATINE PHOSPHOKINASE / CREATININE / GLUCOSE / LACTATE DEHYDROGENASE / LIPASE / PHOSPHORUS / POTASSIUM / SODIUM / TOTAL BILIRUBIN / TOTAL PROTEIN / URIC ACID: tissue Plasma
# [1] = 0 mg/kg, 72 h, dose level Control, time 3 day
# [2] = 0 mg/kg, 120 h, dose level Control, time 5 day
# [3] = 150 mg/kg, 72 h, dose level High, time 3 day
smiles,measurement,setting,value
CN(Cc1ccc(C(C)(C)C)cc1)Cc1cccc2ccccc12 [BUTENAFINE],ABSOLUTE BASOPHIL,[1],0 CELLS/uL
same,ABSOLUTE EOSINOPHIL,[1],0 CELLS/uL
same,ABSOLUTE LYMPHOCYTE,[1],10887 CELLS/uL
same,ABSOLUTE MONOCYTE,[1],56 CELLS/uL
same,ABSOLUTE SEGMENTED NEUTROPHIL,[1],1057 CELLS/uL
same,BASOPHIL,[1],0%
same,EOSINOPHIL,[1],0%
same,ERYTHROCYTE COUNT,[1],5.31 x10E6/uL
same,HEMATOCRIT,[1],33.78%
same,HEMOGLOBIN,[1],13.4 G/DL
same,LEUKOCYTE COUNT,[1],12 x10E3/uL
same,LYMPHOCYTE,[1],91.17%
same,MEAN CORPUSCULAR HEMOGLOBIN,[1],25.25 pg
same,MEAN CORPUSCULAR HEMOGLOBIN CONCENTRATION,[1],39.65 G/DL
same,MEAN CORPUSCULAR VOLUME,[1],63.65 fL
same,MONOCYTE,[1],0.5%
same,NEUTROPHIL,[1],8.33%
same,NUCLEATED RED BLOOD CELLS,[1],0 /100WBC
same,PLATELET COUNT,[1],1142 x10E3/uL
same,ALANINE AMINOTRANSFERASE,[1],57.17 u/L
same,ALBUMIN,[1],4.28 G/DL
same,ALKALINE PHOSPHATASE,[1],425.83 u/L
same,ASPARTATE AMINOTRANSFERASE,[1],93.83 u/L
same,BLOOD UREA NITROGEN,[1],14.17 mg/dL
same,CARBON DIOXIDE,[1],33.5 mmol/L
same,CHLORIDE,[1],100 MEQ/L
same,CHOLESTEROL,[1],70.33 mg/dL
same,CREATINE PHOSPHOKINASE,[1],438.67 u/L
same,CREATININE,[1],0.19 mg/dL
same,GLUCOSE,[1],138.5 mg/dL
same,LACTATE DEHYDROGENASE,[1],190.17 u/L
same,LIPASE,[1],9.83 u/L
same,PHOSPHORUS,[1],11.05 mg/dL
same,POTASSIUM,[1],6.59 MEQ/L
same,SODIUM,[1],143.58 MEQ/L
same,TOTAL BILIRUBIN,[1],0.22 mg/dL
same,TOTAL PROTEIN,[1],6.15 G/DL
same,URIC ACID,[1],1.3 mg/dL
same,ABSOLUTE BASOPHIL,[2],0 CELLS/uL
same,ABSOLUTE EOSINOPHIL,[2],91.17 CELLS/uL
same,ABSOLUTE LYMPHOCYTE,[2],11847.67 CELLS/uL
same,ABSOLUTE MONOCYTE,[2],172.83 CELLS/uL
same,ABSOLUTE SEGMENTED NEUTROPHIL,[2],1105 CELLS/uL
same,BASOPHIL,[2],0%
same,EOSINOPHIL,[2],0.67%
same,ERYTHROCYTE COUNT,[2],5.35 x10E6/uL
same,HEMATOCRIT,[2],33.65%
same,HEMOGLOBIN,[2],13.42 G/DL
same,LEUKOCYTE COUNT,[2],13.22 x10E3/uL
same,LYMPHOCYTE,[2],89.83%
same,MEAN CORPUSCULAR HEMOGLOBIN,[2],25.12 pg
same,MEAN CORPUSCULAR HEMOGLOBIN CONCENTRATION,[2],39.9 G/DL
same,MEAN CORPUSCULAR VOLUME,[2],63 fL
same,MONOCYTE,[2],1.33%
same,NEUTROPHIL,[2],8.17%
same,NUCLEATED RED BLOOD CELLS,[2],0 /100WBC
same,PLATELET COUNT,[2],1347.83 x10E3/uL
same,ALANINE AMINOTRANSFERASE,[2],50 u/L
same,ALBUMIN,[2],4.1 G/DL
same,ALKALINE PHOSPHATASE,[2],329.17 u/L
same,ASPARTATE AMINOTRANSFERASE,[2],77.17 u/L
same,BLOOD UREA NITROGEN,[2],16.83 mg/dL
same,CARBON DIOXIDE,[2],34.83 mmol/L
same,CHLORIDE,[2],99.83 MEQ/L
same,CHOLESTEROL,[2],75.67 mg/dL
same,CREATINE PHOSPHOKINASE,[2],295.83 u/L
same,CREATININE,[2],0.18 mg/dL
same,GLUCOSE,[2],156.33 mg/dL
same,LACTATE DEHYDROGENASE,[2],166.83 u/L
same,LIPASE,[2],9.83 u/L
same,PHOSPHORUS,[2],12.18 mg/dL
same,POTASSIUM,[2],6.69 MEQ/L
same,SODIUM,[2],143.97 MEQ/L
same,TOTAL BILIRUBIN,[2],0.22 mg/dL
same,TOTAL PROTEIN,[2],6.05 G/DL
same,URIC ACID,[2],1.6 mg/dL
same,ABSOLUTE BASOPHIL,[3],0 CELLS/uL
same,ABSOLUTE EOSINOPHIL,[3],0 CELLS/uL
same,ABSOLUTE LYMPHOCYTE,[3],11405 CELLS/uL
same,ABSOLUTE MONOCYTE,[3],88.33 CELLS/uL
same,ABSOLUTE SEGMENTED NEUTROPHIL,[3],1473.33 CELLS/uL
same,BASOPHIL,[3],0%
same,EOSINOPHIL,[3],0%
same,ERYTHROCYTE COUNT,[3],5.31 x10E6/uL
same,HEMATOCRIT,[3],33.8%
same,HEMOGLOBIN,[3],13.6 G/DL
same,LEUKOCYTE COUNT,[3],12.97 x10E3/uL
same,LYMPHOCYTE,[3],88%
same,MEAN CORPUSCULAR HEMOGLOBIN,[3],25.63 pg
same,MEAN CORPUSCULAR HEMOGLOBIN CONCENTRATION,[3],40.27 G/DL
same,MEAN CORPUSCULAR VOLUME,[3],63.67 fL
same,MONOCYTE,[3],0.67%
same,NEUTROPHIL,[3],11.33%
same,NUCLEATED RED BLOOD CELLS,[3],0 /100WBC
same,PLATELET COUNT,[3],1396 x10E3/uL
same,ALANINE AMINOTRANSFERASE,[3],55 u/L
same,ALBUMIN,[3],3.97 G/DL
same,ALKALINE PHOSPHATASE,[3],429.67 u/L
same,ASPARTATE AMINOTRANSFERASE,[3],77.33 u/L
same,BLOOD UREA NITROGEN,[3],15.67 mg/dL
same,CARBON DIOXIDE,[3],31.67 mmol/L
same,CHLORIDE,[3],101.67 MEQ/L
same,CHOLESTEROL,[3],73 mg/dL
same,CREATINE PHOSPHOKINASE,[3],247 u/L
same,CREATININE,[3],0.17 mg/dL
same,GLUCOSE,[3],147.33 mg/dL
same,LACTATE DEHYDROGENASE,[3],229.67 u/L
same,LIPASE,[3],9 u/L
same,PHOSPHORUS,[3],13.73 mg/dL
same,POTASSIUM,[3],6.88 MEQ/L
same,SODIUM,[3],145.7 MEQ/L
same,TOTAL BILIRUBIN,[3],0.2 mg/dL
same,TOTAL PROTEIN,[3],5.73 G/DL
same,URIC ACID,[3],1.4 mg/dL
